One molecule from publication PMC6273978, “Synthesis and Pharmacological Evaluation of Novel Pleuromutilin Derivatives with Substituted Benzimidazole Moieties” (Molecules, 2016) can be followed below.

Structures are written as SMILES.

Assay in all cases: Cytochrome P450 inhibition cocktail assay, human liver microsomes
Assay type in all cases: in vitro ADME

For assay [1], the target named is T1, CYP1A2 (Homo sapiens, UniProt P05177).
T1 construct: Twenty microliters of human liver microsomes (final concentration of 0.3 mg/mL); from tissue; host or cells: human liver microsomes
T1 sequence (P05177 1-516): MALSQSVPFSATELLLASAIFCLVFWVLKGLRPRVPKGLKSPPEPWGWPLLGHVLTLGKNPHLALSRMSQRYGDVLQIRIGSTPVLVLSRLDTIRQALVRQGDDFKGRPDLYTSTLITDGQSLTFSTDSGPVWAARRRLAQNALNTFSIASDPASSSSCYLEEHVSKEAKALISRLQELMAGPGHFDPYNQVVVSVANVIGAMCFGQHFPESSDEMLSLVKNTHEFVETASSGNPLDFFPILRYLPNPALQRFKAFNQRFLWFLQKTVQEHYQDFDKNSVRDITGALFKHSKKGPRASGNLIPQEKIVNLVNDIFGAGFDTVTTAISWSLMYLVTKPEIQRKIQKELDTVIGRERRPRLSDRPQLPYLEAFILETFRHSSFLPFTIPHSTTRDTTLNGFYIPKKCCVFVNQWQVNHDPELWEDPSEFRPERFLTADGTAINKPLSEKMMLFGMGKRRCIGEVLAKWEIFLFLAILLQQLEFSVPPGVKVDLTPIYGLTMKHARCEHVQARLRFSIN
Particulars: probe phenacetin, metabolite acetaminophen. The procedure: (§1) The cytochrome P450 (CYP) proteins form a large family of heme proteins that catalyze many reactions involved xenobiotic metabolism and biosynthesis of cholesterol, steroids, and other lipid components. Some chemicals could affect the disposition of conventional pharmaceuticals through the inhibition of CYP450 enzymes. […] The selective probe substrate concentrations were prepared near to its respective Km value, and the compound 3 concentration range is from […].
(§2) Compound 3 was screened for its ability to inhibit cytochrome P450 using a cocktail assay described previously. Briefly, 50 μL of compound 3 was added to 96-well plates, with final concentrations of 0.05, 0.1, 0.5, 1, 10, 50, and 100 μM, respectively. Twenty microliters of human liver microsomes (final concentration of 0.3 mg/mL) and 20 μL of probe substrates (Table 3) in 0.1 M Tris were added. After preincubation at 37 °C for 10 min, 10 μL of NADPH was added (final concentration of 1 mM), and the reaction started to incubate at the same temperature for 15 min. The reactions were then quenched by the addition of 100 μL of acetonitrile with a mixture of propranolol and nadolol (50 nM) used as an internal standard. After reactions were finished, the plates were centrifuged and the supernatants were analyzed for the five metabolites (Table 3) by LC/MS/MS.

The target in assay [2] is T2, CYP3A4 (Homo sapiens, UniProt P08684).
T2 construct: Twenty microliters of human liver microsomes (final concentration of 0.3 mg/mL); from tissue; host or cells: human liver microsomes
T2 sequence (P08684 whole entry): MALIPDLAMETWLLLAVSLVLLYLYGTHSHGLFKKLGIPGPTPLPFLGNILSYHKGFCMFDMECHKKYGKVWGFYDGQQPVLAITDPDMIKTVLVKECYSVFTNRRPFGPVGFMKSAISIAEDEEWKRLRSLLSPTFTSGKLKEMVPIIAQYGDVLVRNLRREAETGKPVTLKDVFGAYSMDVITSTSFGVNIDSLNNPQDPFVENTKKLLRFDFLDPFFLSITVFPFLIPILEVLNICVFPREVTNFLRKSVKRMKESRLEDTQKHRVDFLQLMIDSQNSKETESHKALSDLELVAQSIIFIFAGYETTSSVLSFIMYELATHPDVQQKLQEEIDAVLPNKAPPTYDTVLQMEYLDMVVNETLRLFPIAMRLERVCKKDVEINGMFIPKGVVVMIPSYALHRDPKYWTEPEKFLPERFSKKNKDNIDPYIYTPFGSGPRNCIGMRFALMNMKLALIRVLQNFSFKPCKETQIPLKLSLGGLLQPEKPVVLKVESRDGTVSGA
Particulars: probe midazolam, metabolite 1-OH-midazolam. As to the method: as §1, §2

Assay [3] addresses T3, CYP2D6 (Homo sapiens, UniProt P10635).
T3 construct: Twenty microliters of human liver microsomes (final concentration of 0.3 mg/mL); from tissue; host or cells: human liver microsomes
Conditions: probe dextromethorphan, metabolite dextrophan. As to the method: as §1, §2

Assay [4] concerns the target T4, CYP2C9 (Homo sapiens, UniProt P11712).
T4 construct: Twenty microliters of human liver microsomes (final concentration of 0.3 mg/mL); from tissue; host or cells: human liver microsomes
Conditions: probe diclofenac, metabolite 4-OH-diclofenac. As to the method:
as §1, §2

Assay [5] concerns the target T5, CYP2C19 (Homo sapiens, UniProt P33261).
T5 construct: Twenty microliters of human liver microsomes (final concentration of 0.3 mg/mL); from tissue; host or cells: human liver microsomes
Particulars: probe mephenytoin, metabolite 4-OH-S-mephenytoin. As to the method:
as §1, §2

T4 sequence (P11712 whole entry): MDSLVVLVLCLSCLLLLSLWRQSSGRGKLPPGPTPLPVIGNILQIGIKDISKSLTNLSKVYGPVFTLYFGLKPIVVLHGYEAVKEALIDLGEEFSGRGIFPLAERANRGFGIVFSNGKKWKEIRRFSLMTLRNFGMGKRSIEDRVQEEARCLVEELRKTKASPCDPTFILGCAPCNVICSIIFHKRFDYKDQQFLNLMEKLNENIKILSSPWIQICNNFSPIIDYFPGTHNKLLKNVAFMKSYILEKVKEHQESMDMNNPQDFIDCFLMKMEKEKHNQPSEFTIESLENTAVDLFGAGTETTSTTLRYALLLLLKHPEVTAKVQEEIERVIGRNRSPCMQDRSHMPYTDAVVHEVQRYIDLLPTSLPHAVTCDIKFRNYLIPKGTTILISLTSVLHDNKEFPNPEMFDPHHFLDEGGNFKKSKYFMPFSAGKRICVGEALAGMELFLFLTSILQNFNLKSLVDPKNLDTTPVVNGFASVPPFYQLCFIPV
T3 sequence (P10635 whole entry): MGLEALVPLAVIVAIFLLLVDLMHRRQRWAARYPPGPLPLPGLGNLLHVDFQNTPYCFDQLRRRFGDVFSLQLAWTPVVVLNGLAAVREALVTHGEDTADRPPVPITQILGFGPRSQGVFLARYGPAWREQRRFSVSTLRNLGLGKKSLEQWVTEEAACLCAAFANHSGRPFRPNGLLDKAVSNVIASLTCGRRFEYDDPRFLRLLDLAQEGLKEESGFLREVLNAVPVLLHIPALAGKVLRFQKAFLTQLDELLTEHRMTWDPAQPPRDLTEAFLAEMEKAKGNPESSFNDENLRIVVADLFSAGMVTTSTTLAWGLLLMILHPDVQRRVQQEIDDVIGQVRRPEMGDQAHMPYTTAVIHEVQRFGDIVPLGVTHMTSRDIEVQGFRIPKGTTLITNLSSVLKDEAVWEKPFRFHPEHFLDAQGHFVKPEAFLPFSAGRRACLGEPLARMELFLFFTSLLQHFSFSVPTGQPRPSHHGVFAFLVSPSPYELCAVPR
T5 sequence (P33261 whole entry): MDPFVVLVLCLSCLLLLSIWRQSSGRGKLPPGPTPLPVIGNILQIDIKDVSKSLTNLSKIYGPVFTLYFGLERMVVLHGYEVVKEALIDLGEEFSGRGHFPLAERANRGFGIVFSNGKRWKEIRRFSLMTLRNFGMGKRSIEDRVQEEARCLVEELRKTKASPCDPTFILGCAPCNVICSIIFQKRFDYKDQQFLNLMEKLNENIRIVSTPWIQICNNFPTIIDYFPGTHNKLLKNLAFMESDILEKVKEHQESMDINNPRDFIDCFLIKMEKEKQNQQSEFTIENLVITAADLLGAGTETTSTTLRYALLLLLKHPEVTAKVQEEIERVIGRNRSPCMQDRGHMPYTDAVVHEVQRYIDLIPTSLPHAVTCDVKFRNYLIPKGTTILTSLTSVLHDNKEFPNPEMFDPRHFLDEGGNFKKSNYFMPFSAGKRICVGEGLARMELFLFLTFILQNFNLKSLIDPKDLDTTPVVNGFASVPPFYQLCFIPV

As a reminder, the IC50 is the concentration at which inhibition is half-maximal. On to `C=C[C@]1(C)C[C@@H](OC(=O)CSc2nc3ccc(N)cc3[nH]2)[C@]2(C)[C@H](C)CC[C@]3(CCC(=O)[C@H]32)[C@@H](C)[C@@H]1O` [Compound 3, 14-O-((5-Amino-benzimidazole-2-yl)thioacetyl) Mutilin], for which the IC50 in assay [1] is above 50 µM; in assay [2], 1.69 µM; in assay [3] it was above 100 µM; in assay [4] it was 10.7 µM; in assay [5], above 50 µM.
